Laboratory results reported in ChEMBL document CHEMBL1201862, “PubChem BioAssay data set” (2004).
Calls of active or inactive are those of the source.

Assays:
[1] = system: INS1; test: INS-1E survival protection against cytokine death – cell-based, luminescence, retest, dose response (AID 449756); type: functional; conditions: Rattus norvegicus;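 further: cell death triggered by IL-1 beta plus TNF-alpha plus IFN-gamma mixture; protective hits raise ATP signal compared with cytokine alone wells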
[2] = biological target: T1, Microphthalmia-associated transcription factor (Homo sapiens, UniProt O75030); test: reducers of TRPM1 reporter luminescence, concentration series – cell-based, SK-MEL-5, cherry-picked, set 3, MITF inhibitor project, dose response (AID 493073); type: functional;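 further: SK-MEL-5 melanoma cells with luciferase driven by the MITF target TRPM1 promoter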
T1 sequence (O75030 whole entry): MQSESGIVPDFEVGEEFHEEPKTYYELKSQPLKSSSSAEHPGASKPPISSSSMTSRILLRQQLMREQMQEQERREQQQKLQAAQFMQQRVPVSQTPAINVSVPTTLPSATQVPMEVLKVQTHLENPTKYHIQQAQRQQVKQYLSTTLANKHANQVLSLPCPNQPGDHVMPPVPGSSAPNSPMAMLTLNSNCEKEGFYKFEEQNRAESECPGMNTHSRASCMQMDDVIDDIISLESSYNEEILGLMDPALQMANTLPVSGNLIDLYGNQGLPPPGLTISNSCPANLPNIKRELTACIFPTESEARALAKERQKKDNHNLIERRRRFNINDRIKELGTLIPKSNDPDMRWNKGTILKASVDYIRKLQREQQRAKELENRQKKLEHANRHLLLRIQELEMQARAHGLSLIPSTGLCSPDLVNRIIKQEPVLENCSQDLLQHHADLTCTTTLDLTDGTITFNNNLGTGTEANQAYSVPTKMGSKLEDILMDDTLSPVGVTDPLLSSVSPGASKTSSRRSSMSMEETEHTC

[3] = system: A-375; test: proliferation inhibition in MITF-low A375 cells – cell-based, cherry-pick samples, set 2, counter-screen for MITF modulator project, dose response (AID 540335); type: functional; conditions: Homo sapiens
[4] = biological target: T2, Ubiquitin-conjugating enzyme E2 N (Homo sapiens, UniProt P61088); type: functional;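 further: Dose-response confirmation in a TR-FRET assay detecting UBC13-driven polyubiquitin chain formation, inhibition measured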
T2 sequence (P61088 whole entry): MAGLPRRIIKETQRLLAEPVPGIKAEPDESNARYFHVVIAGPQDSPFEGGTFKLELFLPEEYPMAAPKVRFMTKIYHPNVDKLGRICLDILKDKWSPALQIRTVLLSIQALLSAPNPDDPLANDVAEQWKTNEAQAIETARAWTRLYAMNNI

[5] = Luminescence Cell-Based Dose Retest to Confirm Inhibitors of Cancer Stem Cells. [Related pubchem assays (depositor defined):AID2717, AID2721]; type: functional; conditions: Homo sapiens
[6] = biological target: T3, Trace amine-associated receptor 1 (Homo sapiens, UniProt Q96RJ0); test: Counterscreen for agonists of the human trace amine associated receptor 1 (hTAAR1): Fluorescence-based cell-based high throughput dose response assay to identify hTAAR1 agonist that also desensitize TAAR1 receptor response.; type: functional
T3 sequence (Q96RJ0 whole entry): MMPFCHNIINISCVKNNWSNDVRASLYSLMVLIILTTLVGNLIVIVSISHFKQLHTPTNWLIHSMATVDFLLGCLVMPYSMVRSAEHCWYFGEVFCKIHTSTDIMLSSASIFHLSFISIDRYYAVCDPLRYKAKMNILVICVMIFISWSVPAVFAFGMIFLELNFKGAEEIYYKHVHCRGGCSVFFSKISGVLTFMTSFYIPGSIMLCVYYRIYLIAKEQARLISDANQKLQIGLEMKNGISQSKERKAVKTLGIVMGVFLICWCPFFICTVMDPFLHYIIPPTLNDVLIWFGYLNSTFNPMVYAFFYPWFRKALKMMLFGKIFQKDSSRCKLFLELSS

[7] = biological target: FAD-linked sulfhydryl oxidase ALR (Homo sapiens, UniProt P55789); test: ALR-catalysed DTT oxidation blockers – biochemical, H2O2 detection, luminescence, cherry-pick, dose response (AID 493248)
[8] = biological target: T3, Trace amine-associated receptor 1; test: Fluorescence-based cell-based high throughput dose response assay to identify agonists of the human trace amine associated receptor 1 (TAAR1).; type: functional
[9] = cells; type: functional, cell-based
[10] = biological target: T4, Nuclear receptor subfamily 0 group B member 1 (Homo sapiens, UniProt P51843); type: functional, cell-based;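 further: HEK293T cells transfected with SF-1 and DAX-1 plus StAR promoter luciferase reporter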
T4 sequence (P51843 whole entry): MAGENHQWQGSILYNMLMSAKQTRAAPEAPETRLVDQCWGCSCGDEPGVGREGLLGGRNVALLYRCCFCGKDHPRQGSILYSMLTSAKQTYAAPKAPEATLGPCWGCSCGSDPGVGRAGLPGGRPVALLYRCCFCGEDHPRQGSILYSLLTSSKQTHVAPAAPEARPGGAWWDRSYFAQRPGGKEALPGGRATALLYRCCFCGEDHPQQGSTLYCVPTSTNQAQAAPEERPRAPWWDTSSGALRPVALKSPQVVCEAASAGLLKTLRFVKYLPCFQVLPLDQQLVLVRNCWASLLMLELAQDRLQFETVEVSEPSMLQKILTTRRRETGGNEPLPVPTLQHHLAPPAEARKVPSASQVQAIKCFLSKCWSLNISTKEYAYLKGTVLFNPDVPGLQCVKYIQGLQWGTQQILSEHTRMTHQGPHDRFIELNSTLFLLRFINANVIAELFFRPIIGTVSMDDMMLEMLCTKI

[11] = biological target: T5, Corticotropin-releasing factor receptor 2/Corticotropin-releasing factor-binding protein (Homo sapiens, UniProt P24387+Q13324); test: Dose Response confirmation of uHTS hits for small molecule antagonists of the CRF-binding protein and CRF-R2 receptor complex.; type: functional; conditions: read-out: IC50_Mean
T5 sequence (Q13324 whole entry): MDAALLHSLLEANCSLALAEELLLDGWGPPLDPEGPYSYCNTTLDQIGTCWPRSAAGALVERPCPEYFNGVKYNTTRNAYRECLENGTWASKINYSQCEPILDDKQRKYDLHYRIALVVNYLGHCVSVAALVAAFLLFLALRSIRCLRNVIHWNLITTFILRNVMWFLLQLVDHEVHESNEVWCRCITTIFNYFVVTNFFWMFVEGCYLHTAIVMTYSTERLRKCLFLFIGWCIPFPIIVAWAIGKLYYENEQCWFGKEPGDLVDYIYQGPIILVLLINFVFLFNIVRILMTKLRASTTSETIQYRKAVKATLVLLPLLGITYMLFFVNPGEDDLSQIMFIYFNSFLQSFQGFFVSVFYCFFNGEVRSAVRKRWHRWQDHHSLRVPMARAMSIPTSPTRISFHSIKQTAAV
T5 sequence (P24387 whole entry): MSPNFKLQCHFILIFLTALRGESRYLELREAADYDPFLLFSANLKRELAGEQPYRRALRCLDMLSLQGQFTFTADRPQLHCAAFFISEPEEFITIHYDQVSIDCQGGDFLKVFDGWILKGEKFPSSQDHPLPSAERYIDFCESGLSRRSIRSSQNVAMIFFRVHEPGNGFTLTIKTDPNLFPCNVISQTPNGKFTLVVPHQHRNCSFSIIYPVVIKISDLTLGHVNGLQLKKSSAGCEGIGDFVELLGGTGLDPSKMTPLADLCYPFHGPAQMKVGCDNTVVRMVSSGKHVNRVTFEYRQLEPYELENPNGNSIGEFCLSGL

[12] = biological target: T5, Corticotropin-releasing factor receptor 2/Corticotropin-releasing factor-binding protein; test: activators of CRF receptor 2 with binding protein – uHTS hits, confirmation (AID 602473); type: functional; conditions: read-out: EC50_Mean
[13] = biological target: Peroxisome proliferator-activated receptor gamma/Nuclear receptor coactivator 3 (Homo sapiens, UniProt P37231); test: (§1) TR-FRET dose response biochemical High Throughput Screening assay for agonists of the steroid receptor coactivator 3 (SRC-3) recruitment by the peroxisome proliferator-activated receptor gamma (PPAR gamma): non-selective agonists. [Related pubchem assays: 1301 (Confirmation screen.), 1048 (Primary screen.)]; type: functional
[14] = biological target: Peroxisome proliferator-activated receptor gamma/Nuclear receptor coactivator 1 (Homo sapiens, UniProt P37231); test: as §1, with “1 (SRC-1)” for “3 (SRC-3)”, “assays (depositor defined):AID1300, AID1808, AID504735, AID631]” for “assays: 1301 (Confirmation screen.), 1048 (Primary screen.)]”; type: protein assay
Sequence of Peroxisome proliferator-activated receptor gamma/Nuclear receptor coactivator 1 (P37231 whole entry, the tested form may be a part): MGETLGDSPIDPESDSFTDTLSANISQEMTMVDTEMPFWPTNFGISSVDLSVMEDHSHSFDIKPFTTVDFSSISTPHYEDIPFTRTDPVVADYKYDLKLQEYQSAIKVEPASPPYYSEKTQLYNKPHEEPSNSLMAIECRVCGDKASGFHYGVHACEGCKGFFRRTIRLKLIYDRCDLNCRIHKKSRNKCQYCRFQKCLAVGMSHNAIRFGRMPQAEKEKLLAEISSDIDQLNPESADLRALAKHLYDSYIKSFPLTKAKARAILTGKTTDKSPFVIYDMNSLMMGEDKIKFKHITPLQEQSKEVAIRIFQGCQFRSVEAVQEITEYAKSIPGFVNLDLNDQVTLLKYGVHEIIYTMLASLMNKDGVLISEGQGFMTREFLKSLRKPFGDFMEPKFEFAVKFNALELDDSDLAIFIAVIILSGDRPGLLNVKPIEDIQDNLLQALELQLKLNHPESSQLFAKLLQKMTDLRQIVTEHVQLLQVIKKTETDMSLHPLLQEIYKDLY
Sequence of Peroxisome proliferator-activated receptor gamma/Nuclear receptor coactivator 1 (Q15788 whole entry, further chain, the tested form may be a part): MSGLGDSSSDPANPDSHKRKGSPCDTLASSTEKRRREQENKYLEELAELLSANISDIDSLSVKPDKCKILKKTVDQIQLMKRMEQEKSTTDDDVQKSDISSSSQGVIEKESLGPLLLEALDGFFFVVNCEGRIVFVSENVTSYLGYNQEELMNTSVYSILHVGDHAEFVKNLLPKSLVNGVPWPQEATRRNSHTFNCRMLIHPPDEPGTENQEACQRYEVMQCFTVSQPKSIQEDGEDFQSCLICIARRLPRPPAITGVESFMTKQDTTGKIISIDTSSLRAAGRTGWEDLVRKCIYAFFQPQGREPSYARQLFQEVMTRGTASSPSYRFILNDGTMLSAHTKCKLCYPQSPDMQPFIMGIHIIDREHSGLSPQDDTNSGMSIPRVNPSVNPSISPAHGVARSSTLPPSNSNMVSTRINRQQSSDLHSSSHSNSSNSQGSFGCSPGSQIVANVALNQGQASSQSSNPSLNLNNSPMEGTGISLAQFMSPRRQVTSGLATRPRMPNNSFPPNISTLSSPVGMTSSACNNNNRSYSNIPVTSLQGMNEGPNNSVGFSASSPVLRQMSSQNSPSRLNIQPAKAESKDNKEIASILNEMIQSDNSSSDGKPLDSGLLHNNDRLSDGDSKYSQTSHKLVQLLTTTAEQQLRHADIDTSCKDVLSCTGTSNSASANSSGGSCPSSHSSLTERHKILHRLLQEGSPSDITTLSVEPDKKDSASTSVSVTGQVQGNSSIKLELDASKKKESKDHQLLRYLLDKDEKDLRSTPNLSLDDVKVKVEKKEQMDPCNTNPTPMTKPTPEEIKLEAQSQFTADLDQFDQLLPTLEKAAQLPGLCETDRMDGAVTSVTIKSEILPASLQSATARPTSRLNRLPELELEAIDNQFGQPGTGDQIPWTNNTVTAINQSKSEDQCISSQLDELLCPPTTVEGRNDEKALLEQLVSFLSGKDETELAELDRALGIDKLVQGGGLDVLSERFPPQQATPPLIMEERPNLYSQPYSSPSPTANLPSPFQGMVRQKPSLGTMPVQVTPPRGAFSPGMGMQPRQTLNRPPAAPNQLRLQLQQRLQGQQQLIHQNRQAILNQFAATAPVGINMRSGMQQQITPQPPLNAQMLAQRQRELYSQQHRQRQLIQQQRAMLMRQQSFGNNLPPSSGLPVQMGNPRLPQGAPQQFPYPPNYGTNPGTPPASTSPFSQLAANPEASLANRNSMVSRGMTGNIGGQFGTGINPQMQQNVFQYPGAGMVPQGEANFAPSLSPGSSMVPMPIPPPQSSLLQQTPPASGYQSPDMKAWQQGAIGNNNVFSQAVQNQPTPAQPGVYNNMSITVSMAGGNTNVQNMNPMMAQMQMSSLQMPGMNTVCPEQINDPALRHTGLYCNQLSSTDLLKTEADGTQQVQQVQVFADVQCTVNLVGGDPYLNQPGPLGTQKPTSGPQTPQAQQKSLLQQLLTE

[15] = biological target: T6, RNA-binding protein pos-1 (Caenorhabditis elegans, UniProt G5EF15); test: disruptors of C. elegans POS-1 RNA interaction – biochemical, fluorescence polarization, dose response (AID 1964);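 further: purified POS-1 fused to maltose binding protein made in E. coli; potency of compounds blocking POS-1 binding to fluorescent RNA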
T6 sequence (G5EF15 whole entry): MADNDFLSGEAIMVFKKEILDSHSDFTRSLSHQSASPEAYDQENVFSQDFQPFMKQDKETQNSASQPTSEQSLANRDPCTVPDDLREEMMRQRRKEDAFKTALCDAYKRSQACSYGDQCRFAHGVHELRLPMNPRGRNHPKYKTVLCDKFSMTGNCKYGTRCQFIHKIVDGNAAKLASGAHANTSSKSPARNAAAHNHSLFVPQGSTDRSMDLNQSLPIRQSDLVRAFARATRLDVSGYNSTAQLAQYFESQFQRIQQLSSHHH

[16] = biological target: Peroxisome proliferator-activated receptor gamma/Nuclear receptor coactivator 2 (Homo sapiens, UniProt P37231); test: TR-FRET dose response biochemical High Throughput Screening assay for agonists of the steroid receptor coactivator 2 (SRC-2) recruitment by the peroxisome proliferator-activated receptor gamma (PPAR gamma): non-selective agonists. [Related pubchem assays: 1297, 1032 ]; type: functional
Sequence of Peroxisome proliferator-activated receptor gamma/Nuclear receptor coactivator 2 (P37231 whole entry): as the sequence (P37231 whole entry, the tested form may be a part) above
Sequence of Peroxisome proliferator-activated receptor gamma/Nuclear receptor coactivator 2 (Q15596 whole entry, further chain): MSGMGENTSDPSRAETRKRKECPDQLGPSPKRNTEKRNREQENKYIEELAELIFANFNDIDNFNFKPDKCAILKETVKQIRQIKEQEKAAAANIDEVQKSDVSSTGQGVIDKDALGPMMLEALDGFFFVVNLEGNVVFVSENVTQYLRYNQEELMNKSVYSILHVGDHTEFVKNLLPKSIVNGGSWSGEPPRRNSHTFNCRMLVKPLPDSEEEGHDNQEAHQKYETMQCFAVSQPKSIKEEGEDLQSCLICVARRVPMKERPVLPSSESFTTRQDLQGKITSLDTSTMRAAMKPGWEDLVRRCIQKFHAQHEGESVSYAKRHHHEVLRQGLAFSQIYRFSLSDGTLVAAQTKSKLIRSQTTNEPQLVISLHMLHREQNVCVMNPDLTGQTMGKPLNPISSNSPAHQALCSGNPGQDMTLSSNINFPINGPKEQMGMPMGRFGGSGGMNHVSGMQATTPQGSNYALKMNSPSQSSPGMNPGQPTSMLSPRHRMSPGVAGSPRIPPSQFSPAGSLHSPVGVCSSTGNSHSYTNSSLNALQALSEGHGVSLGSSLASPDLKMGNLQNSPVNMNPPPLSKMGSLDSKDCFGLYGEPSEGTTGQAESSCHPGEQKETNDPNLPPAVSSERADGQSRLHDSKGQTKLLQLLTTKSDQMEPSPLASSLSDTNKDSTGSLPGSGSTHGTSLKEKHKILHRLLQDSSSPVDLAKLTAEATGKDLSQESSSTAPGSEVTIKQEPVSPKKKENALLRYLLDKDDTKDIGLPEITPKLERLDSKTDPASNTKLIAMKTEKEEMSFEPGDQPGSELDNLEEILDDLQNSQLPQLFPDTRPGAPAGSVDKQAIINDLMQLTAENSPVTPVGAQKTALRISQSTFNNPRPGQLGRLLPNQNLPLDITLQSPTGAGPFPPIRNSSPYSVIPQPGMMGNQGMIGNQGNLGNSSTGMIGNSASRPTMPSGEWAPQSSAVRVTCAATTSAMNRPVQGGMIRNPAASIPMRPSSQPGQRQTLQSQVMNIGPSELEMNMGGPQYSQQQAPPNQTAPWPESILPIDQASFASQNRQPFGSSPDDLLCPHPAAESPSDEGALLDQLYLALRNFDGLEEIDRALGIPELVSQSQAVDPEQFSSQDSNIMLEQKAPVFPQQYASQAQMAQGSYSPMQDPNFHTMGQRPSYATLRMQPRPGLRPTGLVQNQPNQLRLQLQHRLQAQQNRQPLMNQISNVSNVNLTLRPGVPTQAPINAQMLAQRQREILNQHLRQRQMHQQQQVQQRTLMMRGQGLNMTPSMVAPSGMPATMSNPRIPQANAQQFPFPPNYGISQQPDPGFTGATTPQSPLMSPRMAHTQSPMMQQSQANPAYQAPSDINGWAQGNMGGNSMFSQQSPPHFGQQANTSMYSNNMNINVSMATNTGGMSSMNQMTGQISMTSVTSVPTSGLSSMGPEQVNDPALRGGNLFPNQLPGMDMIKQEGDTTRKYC

[17] = biological target: T7, Zinc finger protein mex-5 (Caenorhabditis elegans, UniProt Q9XUB2); test: potency of MEX-5 RNA-binding blockers – biochemical, C. elegans, fluorescence polarization, dose response (AID 1960)
T7 sequence (Q9XUB2 whole entry): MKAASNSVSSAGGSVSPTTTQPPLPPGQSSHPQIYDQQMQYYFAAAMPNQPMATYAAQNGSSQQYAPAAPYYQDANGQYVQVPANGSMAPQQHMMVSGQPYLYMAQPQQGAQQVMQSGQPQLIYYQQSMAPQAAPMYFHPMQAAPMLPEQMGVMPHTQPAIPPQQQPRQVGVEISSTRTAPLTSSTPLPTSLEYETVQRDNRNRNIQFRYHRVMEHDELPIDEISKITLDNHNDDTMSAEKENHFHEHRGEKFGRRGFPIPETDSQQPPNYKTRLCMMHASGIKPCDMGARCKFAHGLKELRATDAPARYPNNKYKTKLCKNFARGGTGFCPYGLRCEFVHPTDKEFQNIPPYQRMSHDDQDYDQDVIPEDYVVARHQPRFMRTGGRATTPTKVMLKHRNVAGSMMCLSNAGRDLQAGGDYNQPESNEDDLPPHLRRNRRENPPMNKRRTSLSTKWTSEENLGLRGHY

[18] = biological target: Cytochrome P450 2C9 (Homo sapiens, UniProt P11712)
Sequence of Cytochrome P450 2C9 (P11712 whole entry): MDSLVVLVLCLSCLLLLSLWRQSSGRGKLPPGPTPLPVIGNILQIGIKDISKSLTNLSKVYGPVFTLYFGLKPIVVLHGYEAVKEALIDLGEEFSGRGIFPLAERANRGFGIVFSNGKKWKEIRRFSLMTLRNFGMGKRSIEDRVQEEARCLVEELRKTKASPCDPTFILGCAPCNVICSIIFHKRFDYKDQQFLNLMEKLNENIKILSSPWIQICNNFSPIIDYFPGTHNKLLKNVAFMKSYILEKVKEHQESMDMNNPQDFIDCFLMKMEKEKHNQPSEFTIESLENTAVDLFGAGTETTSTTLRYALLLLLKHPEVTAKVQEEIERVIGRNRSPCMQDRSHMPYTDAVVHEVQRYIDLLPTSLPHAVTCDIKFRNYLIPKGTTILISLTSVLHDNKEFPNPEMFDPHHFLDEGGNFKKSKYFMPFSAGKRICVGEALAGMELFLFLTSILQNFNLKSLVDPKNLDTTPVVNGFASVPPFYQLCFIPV

[19] = biological target: Cytochrome P450 3A4 (Homo sapiens, UniProt P08684);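 further: CYP3A4 tested as one member of a cytochrome P450 panel screen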
Sequence of Cytochrome P450 3A4 (P08684 whole entry): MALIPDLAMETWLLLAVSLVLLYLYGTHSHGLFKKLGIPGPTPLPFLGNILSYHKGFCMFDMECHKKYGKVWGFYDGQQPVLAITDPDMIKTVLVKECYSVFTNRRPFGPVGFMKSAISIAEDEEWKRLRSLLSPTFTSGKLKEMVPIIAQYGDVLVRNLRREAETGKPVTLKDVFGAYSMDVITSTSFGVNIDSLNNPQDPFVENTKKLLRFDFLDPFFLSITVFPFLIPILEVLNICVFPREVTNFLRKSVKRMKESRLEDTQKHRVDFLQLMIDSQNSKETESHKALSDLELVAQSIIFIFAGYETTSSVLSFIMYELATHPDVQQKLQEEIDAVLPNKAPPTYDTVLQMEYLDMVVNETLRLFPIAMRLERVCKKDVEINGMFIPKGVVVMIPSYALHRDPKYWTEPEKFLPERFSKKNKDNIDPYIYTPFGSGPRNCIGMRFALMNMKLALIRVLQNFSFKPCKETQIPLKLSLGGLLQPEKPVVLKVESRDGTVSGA

[20] = biological target: Cytochrome P450 2C19 (Homo sapiens, UniProt P33261); test: Cytochrome panel assay with activity outcomes. Panel member name: p450-cyp2c19 Compounds with AC50 equal or less than 10 uM are considered active; type: functional; conditions: read-out: AC50
[21] = microbe, parasite or virus in culture; type: functional; conditions: Mycobacterium tuberculosis
[22] = cells; type: functional
[23] = biological target: T8, Cytochrome P450 1A2 (Homo sapiens, UniProt P05177);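 further: PubChem cytochrome P450 panel assay, CYP1A2 panel member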
T8 sequence (P05177 whole entry): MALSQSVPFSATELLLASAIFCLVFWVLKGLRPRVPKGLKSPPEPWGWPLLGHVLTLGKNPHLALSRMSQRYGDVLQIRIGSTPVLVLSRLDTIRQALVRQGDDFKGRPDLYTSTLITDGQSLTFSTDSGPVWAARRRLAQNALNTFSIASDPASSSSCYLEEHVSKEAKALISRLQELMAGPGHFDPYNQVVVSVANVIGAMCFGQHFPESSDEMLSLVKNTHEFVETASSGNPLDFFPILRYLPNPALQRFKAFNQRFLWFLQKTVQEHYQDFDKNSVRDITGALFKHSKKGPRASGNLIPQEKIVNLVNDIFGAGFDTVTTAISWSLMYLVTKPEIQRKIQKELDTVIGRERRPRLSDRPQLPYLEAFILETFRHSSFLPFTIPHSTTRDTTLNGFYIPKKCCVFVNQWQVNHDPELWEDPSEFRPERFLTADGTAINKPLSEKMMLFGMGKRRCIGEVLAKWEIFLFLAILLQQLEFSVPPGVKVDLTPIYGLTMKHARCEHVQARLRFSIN

CCN1CCN(CCCNC(=O)c2ccc3c(c2)NC(=O)/C(=C\c2cccc(C)c2)S3)CC1
AC50 [1]: 6.5 µM (active)
AC50 [2]: 9.93 µM (active)
AC50 [3]: 17.5 µM (active)
IC50 [4]: > 20 µM (inactive)
AC50 [5]: 4.17 µM (active)

Cn1c(=O)c2[nH]c(Nc3ccccc3)nc2n(C)c1=O
IC50 [6]: 9.39 µM (active)
AC50 [7]: 0.398 µM (active)
EC50 [8]: 5.67 µM (active)

Cc1ccnc(NC(=O)c2cccc(S(=O)(=O)N3CCOCC3)c2)c1
IC50 [9]: > 67.5 µM (inactive)
IC50 [10]: > 67.5 µM (inactive)

C=CCOc1ccc(C2C(C(=O)c3ccco3)=C(O)C(=O)N2c2nnc(C)s2)cc1 (centres undefined)
IC50 [11]: > 47.1 µM (inactive)
EC50 [12]: > 53 µM (inactive)
EC50 [13]: > 79.4 µM (not active)
EC50 [14]: > 79.4 µM (inactive)
EC50 [15]: > 300 µM (not active)
EC50 [16]: > 79.4 µM (not active)
EC50 [17]: > 300 µM (not active)

O=C(OC1CCN(c2ncc(C(F)(F)F)cc2Cl)CC1)c1cccc(C(F)(F)F)c1
AC50 [18]: 0.2 µM (inconclusive)
AC50 [19]: inconclusive
AC50 [20]: 8.91 µM (inconclusive)

Cc1cc(/C=N\NC(=O)c2cccs2)c(C)n1-c1ccc2ncccc2c1
CC50 [21]: > 40 µM (active)
AC50 [19]: inconclusive
IC50 [22]: 34 µM (active)
AC50 [23]: 39.8 µM (inconclusive)
